{"source": "patent US9180155B2", "about": "“Compositions from Nigella sativa” (Bio Nexus, Ltd, priority 2013, dated 2015)", "key": {"[1]": {"test": "DPPH free radical scavenging (antioxidant) assay", "details": "computed on basis of TQ content; inactive samples tested up to 1000 μg/mL", "procedure": "Antioxidant activity was determined utilizing 2,2-diphenyl-1-picrylhydrazyl (DPPH), which is a stable radical. The odd electron in the DPPH free radical gives a strong absorption maximum at 550 nm and is purple in color. The color turns from purple to yellow as the molar absorption of the DPPH radical at 550 nm is reduced when the odd electron of DPPH radical becomes paired with hydrogen from a free radical scavenging antioxidant to form the reduced DPPH-H. The test samples were dissolved in methanol containing 1% dimethyl sulfoxide and added to microtiter wells in 100 μL aliquots to 100 μL of a 100 μM DPPH solution in methanol. Readings were taken at 10, 30 and 60 minutes following the addition of the test material. Percent inhibition of the DPPH radical by the test material was computed relative to the inhibition of the DPPH radical by the vitamin E analog trolox and tabulated as μmol trolox/g test material."}, "[2]": {"test_system": "prostate specific antigen (PSA) secretion by LNCaP prostate cells", "test": "PSA secretion from LNCaP prostate cells", "assay_type": "cell-based, Human", "details": "5 to 100 μg/mL (Spent#1, NSSpent#2: 250 and 500)", "description": "PSA was quantified from the cell culture supernatant fluid using the Quantikine Human KLK3/PSA Immunoassay kit (R&D Systems, Inc., Minneapolis, Minn.). All other materials used in this example were purchased from Sigma (St. Louis, Mo.) or otherwise noted and were of the highest purity commercially available. The N. sativa samples used in this study were those commercial-scale extracts described in Example 1. The LNCaP prostate cell line, which produces PSA, was used to study the effects of commercial-scale N. sativa scale extracts of Example 1 and pure TQ on the secretion of PSA. LNCaP cells were purchased from the American Type Culture Collection (ATCC, Manassas, Va.) and sub-cultured according to instructions supplied by ATCC. Prior to experiments, cells were cultured in DMEM containing 10% FBS-HI added 50 units penicillin/ml and 50 μg streptomycin/ml, and maintained in log phase prior to experimental setup. Cells were grown in a 5% CO2 humidified incubator at 37° C. Components of medium included: (1) 10% FBS/DMEM (Fetal Bovine Serum/Dulbecco's Modified Eagle's Medium) containing 4.5 g glucose/L; (2) 50 U/ml penicillin; and (3) 50 μg/ml streptomycin. Growth medium was made by adding 50 ml of heat inactivated FBS and 5 ml of penicillin/streptomycin to 500 ml DMEM. This medium was stored at 4° C. Before use, the medium was warmed to 37° C. in a water bath. LNCaP cells were seeded at an initial density of 6×10^4 cells/cm^2 in 96-well plates. For two days, the cells were allowed grow to reach confluence. On day three post seeding, cells were treated with TQ, NS8, NS9, NS10, Spent#1, and NSSpent#2 at the concentrations listed in FIGS. 5, 6 and 7. Twenty-four hours later, the supernatant media were sampled and assayed for PSA."}, "3T3-L1 adipocytes": {"test_system": "3T3-L1 adipocytes", "test": "Lipolysis (glycerol assay) in 3T3-L1 adipocytes", "assay_type": "cell-based, murine", "details": "forskolin 82 μg/mL, test materials 5 μg/mL (FIG. 9)", "procedure": "Culture and treatment of 3T3-L1 adipocytes and C2C12 myocytes was as described in Example 5. Concentrations of the forskolin positive control and test materials are listed in FIG. 9 for adipocytes and FIG. 10 for myocytes. Free fatty acid release from 3T3-L1 adipocytes or C2C12 myocytes was quantified by measuring glycerol secretion into the medium. Glycerol was measured spectrophotometrically using the Free Glycerol Determination Kit ([…], Sigma) and an EL 312e Microplate BIO-KINETICS spectrophotometer (BioTek, Winooski, Vt.). Glycerol release from adipocytes and myocytes was expressed, respectively, as the percent increase in free fatty acid secretion (FIG. 9) and relative glycerol content (glycerol index FIG. 10) ±95% confidence intervals of eight observations for one of three representative experiments."}, "[3]": {"test_system": "IL-6 secretion in 3T3-L1 adipocytes", "test": "IL-6 secretion in t10-CLA-stimulated 3T3-L1 adipocytes", "assay_type": "cell-based, murine", "details": "t10-CLA 50 μM control = 100; μg TQ equivalents/mL: Thymoquinone 5.0, NS8 0.11, NS9 0.99, NS10 0.012, NSSpent#2 0.0005; NSSpent#1 5 μg/mL; listed as TQ", "procedure": "The 3T3-L1 murine fibroblast model as used in Example 4 was used in this experiments. Test materials were added four hours prior to the addition of t10-CLA at a concentration of 50 μM. Following overnight incubation, the supernatant media were sampled for determination of IL-6 and adiponectin. The IL-6 secreted into the medium in response to […] stimulation was quantified using the Quantikine® Mouse IL-6 Immunoassay kit with no modifications (R&D Systems, Minneapolis, Minn.). […] All supernatant media samples were diluted 1:30 for quantification. Test materials and were assayed in duplicate, while solvent controls were replicated eight times. IL-6 and adiponectin secretion were represented relative to the IL-6 and adiponectin secretion of the t10-CLA only controls as the IL-6 and adiponectin index and differences among the means were analyzed by the student's t-test assuming a five percent probability of a type I error (Excel; Microsoft, Redmond, Wash.)."}, "[4]": {"test_system": "adiponectin secretion in 3T3-L1 adipocytes", "test": "Adiponectin secretion in t10-CLA-stimulated 3T3-L1 adipocytes", "assay_type": "cell-based, murine", "details": "t10-CLA 50 μM control = 100; μg TQ equivalents/mL: Thymoquinone 5.0, NS8 0.11, NS9 0.99, NS10 0.012, NSSpent#2 0.0005; NSSpent#1 5 μg/mL; listed as TQ", "procedure": "The 3T3-L1 murine fibroblast model as used in Example 4 was used in this experiments. Test materials were added four hours prior to the addition of t10-CLA at a concentration of 50 μM. Following overnight incubation, the supernatant media were sampled for determination of IL-6 and adiponectin. The adiponectin secreted into the medium was quantified using the Mouse Adiponectin Quantikine® Immunoassay kit with no modifications (R&D Systems, Minneapolis, Minn.). […] Test materials and were assayed in duplicate, while solvent controls were replicated eight times. IL-6 and adiponectin secretion were represented relative to the IL-6 and adiponectin secretion of the t10-CLA only controls as the IL-6 and adiponectin index and differences among the means were analyzed by the student's t-test assuming a five percent probability of a type I error (Excel; Microsoft, Redmond, Wash.)."}, "[5]": {"test_system": "LPS-stimulated macrophages", "details": "published results, El-Mahmoudy 2002; cited from earlier work"}}, "data": [{"smiles": "CC1=CC(=O)C(C(C)C)=CC1=O", "note": "[Thymoquinone, thymoquinone]", "values": [{"measurement": "DPPH Reducing Activity", "setting": "[1]", "result": 45.2, "unit": "μmol Trolox/g TQ"}, {"measurement": "Effect on PSA Secretion over 24 Hours", "setting": "[2]; at 5 and 10 µg/mL", "result": "Decreased PSA at 5 and 10 μg/mL, dramatic"}, {"measurement": "Effect on PSA Secretion over 24 Hours", "setting": "[2]; at 50 and 100 µg/mL", "result": "increase in PSA secretion at 50 and 100 μg/mL."}, {"measurement": "Effect on PSA Secretion over 24 Hours", "setting": "[2]; listed as TQ", "result": "decreased PSA only at the two lowest doses tested"}, {"measurement": "free fatty acid release in adipocytes", "setting": "3T3-L1 adipocytes", "result": "induced free fatty acid release"}, {"measurement": "IL-6 Index", "setting": "[3]", "result": "inhibited IL-6 secretion"}, {"measurement": "Adiponectin Index", "setting": "[4]", "result": "attenuated t10-CLA-stimulated decrease of adiponectin secretion"}, {"measurement": "IC50 for NO inhibition in LPS-stimulated macrophages", "setting": "[5]", "result": "1.4 to 2.8", "unit": "µg/mL"}]}]}
